Data reported in the supplement of paper PMC10307832.

Columns and labels:
Assay in all cases: relative viability (nuclei count vs DMSO), 5 days (fraction); higher = more cells survive
[1] = compound: C[C@@]1(C(=O)Nc2ccc(F)nc2)CCCN1c1nc(Nc2cc(C3CC3)n[nH]2)c2cccn2n1 + CCNC(=O)c1noc(-c2cc(C(C)C)c(O)cc2O)c1-c1ccc(CN2CCOCC2)cc1 [Luminespib] (partner 0.01 µM)
How it was run: (§1)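 Lung cancer cell lines in 1536-well plates got either a single drug or a fixed anchor-drug dose together with five library-drug doses (not always all listed) in √10 steps, by pin tool, on the day after seeding. Nuclei were counted after 5 days, and relative viability is the treated-to-vehicle ratio of nuclei counts. Values are medians of duplicate plates.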

Motesanib + Phenformin = compound: CC1(C)CNc2cc(NC(=O)c3cccnc3NCc3ccncc3)ccc21 [Motesanib] + N=C(N)NC(=N)NCCc1ccccc1 [Phenformin] (partner 250 µM)
How it was run: as §1

Motesanib + OSI-027 = compound: CC1(C)CNc2cc(NC(=O)c3cccnc3NCc3ccncc3)ccc21 [Motesanib] + COc1cccc2cc(-c3nc([C@H]4CC[C@H](C(=O)O)CC4)n4ncnc(N)c34)[nH]c12 [OSI-027] (partner 0.5 µM)
How it was run: as §1

Motesanib + Linsitinib = compound: CC1(C)CNc2cc(NC(=O)c3cccnc3NCc3ccncc3)ccc21 [Motesanib] + C[C@]1(O)C[C@@H](c2nc(-c3ccc4ccc(-c5ccccc5)nc4c3)c3c(N)nccn32)C1 [Linsitinib] (partner 1 µM)
How it was run: as §1

Row | Cell Line | relative viability ([1]; first compound 0.04 µM) | relative viability ([1]; first compound 0.1265 µM) | relative viability ([1]; first compound 0.4 µM) | relative viability ([1]; first compound 1.265 µM) | relative viability (Motesanib + Phenformin; first compound 0.01 µM) | relative viability (Motesanib + Phenformin; first compound 0.03162 µM) | relative viability (Motesanib + Phenformin; first compound 0.1 µM) | relative viability (Motesanib + Phenformin; first compound 0.3162 µM) | relative viability (Motesanib + Phenformin; first compound 1 µM) | relative viability (Motesanib + OSI-027; first compound 0.01 µM) | relative viability (Motesanib + OSI-027; first compound 0.03162 µM) | relative viability (Motesanib + OSI-027; first compound 0.1 µM) | relative viability (Motesanib + OSI-027; first compound 0.3162 µM) | relative viability (Motesanib + OSI-027; first compound 1 µM) | relative viability (Motesanib + Linsitinib; first compound 0.01 µM) | relative viability (Motesanib + Linsitinib; first compound 0.03162 µM) | relative viability (Motesanib + Linsitinib; first compound 0.1 µM) | relative viability (Motesanib + Linsitinib; first compound 0.3162 µM) | relative viability (Motesanib + Linsitinib; first compound 1 µM)
1 | COR-L23 | 0.714 | 0.65 | 0.449 | 0.45 | 0.468 | 0.456 | 0.494 | 0.531 | 0.43 | 0.788 | 0.721 | 0.874 | 0.753 | 0.806 | 0.943 | 0.862 | 0.92 | 1.09 | 0.905
2 | ABC-1 | 0.63 | 0.519 | 0.244 | 0.308 | 0.238 | 0.229 | 0.223 | 0.229 | 0.242 | 0.438 | 0.521 | 0.407 | 0.332 | 0.604 | 1.01 | 0.891 | 0.752 | 0.587 | 0.774
3 | NCI-H522 | 1.04 | 1.02 | 1.04 | 0.974 | 0.644 | 0.634 | 0.581 | 0.582 | 0.667 | 0.741 | 0.585 | 0.417 | 0.659 | 0.732 |  |  |  |  | 
4 | NCI-H838 | 0.296 | 0.291 | 0.183 | 0.338 | 0.547 | 0.667 | 0.514 | 0.745 | 0.656 | 0.448 | 0.313 | 0.394 | 0.438 | 0.415 | 1.05 | 1.09 | 1.06 | 1.08 | 1.07
5 | SW 900 | 0.18 | 0.198 | 0.188 | 0.155 | 0.58 | 0.599 | 0.552 | 0.621 | 0.739 | 0.65 | 0.515 | 0.651 | 0.61 | 0.656 |  |  |  |  | 
6 | A549 |  |  |  |  | 0.0998 | 0.109 | 0.165 | 0.178 | 0.247 |  |  |  |  |  | 0.532 | 0.633 | 0.571 | 0.624 | 0.773
7 | A-427 | 1.03 | 0.957 | 0.639 | 0.881 | 0.239 | 0.294 | 0.319 | 0.374 | 0.323 | 0.4 | 0.459 | 0.485 | 0.545 | 0.5 | 1.06 | 1.11 | 1.07 | 1.22 | 1.22
8 | NCI-H1792 | 0.344 | 0.653 | 0.243 | 0.292 | 0.202 |  | 0.367 | 0.258 | 0.243 |  | 0.65 | 0.723 | 0.824 | 0.651 | 0.569 | 0.492 | 0.625 | 0.561 | 0.492
9 | LCLC-97TM1 | 0.342 | 0.272 | 0.23 | 0.378 | 0.427 | 0.424 | 0.46 | 0.419 | 0.418 | 0.519 | 0.56 | 0.465 | 0.58 | 0.537 | 0.171 | 0.164 | 0.2 | 0.182 | 0.2
10 | NCI-H1703 |  |  |  |  |  |  |  |  |  |  |  |  |  |  | 0.814 | 0.656 | 0.497 | 0.306 | 0.162
11 | LCLC-103H | 0.92 | 0.766 | 0.733 | 0.927 | 0.338 | 0.298 | 0.294 | 0.369 | 0.37 | 0.471 | 0.467 | 0.465 | 0.429 | 0.466 |  | 1.1 | 1.12 | 1.09 | 1.02
12 | PC-3 [JPC-3] | 0.642 | 0.646 | 0.561 | 0.8 | 0.482 | 0.478 | 0.458 | 0.512 | 0.507 | 0.8 | 0.737 | 0.784 | 0.759 | 0.86 | 1.05 | 0.969 | 0.946 | 1.04 | 0.944
13 | BEN | 0.381 | 0.487 | 0.641 | 0.325 | 0.257 | 0.259 | 0.229 | 0.253 | 0.272 | 0.281 | 0.277 | 0.272 | 0.291 | 0.31 | 0.932 | 0.842 | 1.08 | 0.886 | 1.05
14 | NCI-H1666 | 0.915 | 0.932 | 0.825 | 0.812 | 0.558 | 0.552 | 0.591 | 0.607 | 0.612 | 0.784 | 0.816 | 0.894 | 0.937 | 0.859 | 0.966 | 0.83 | 0.786 | 0.788 | 0.753
15 | ChaGo-K-1 | 0.519 | 0.503 | 0.455 | 0.613 | 0.473 | 0.436 | 0.509 | 0.499 | 0.528 | 0.637 | 0.474 | 0.495 | 0.597 | 0.563 |  |  |  |  | 
16 | Calu-6 |  |  |  |  |  |  |  |  |  |  |  |  |  |  | 0.971 | 0.932 | 0.961 | 0.955 | 1.08
17 | HCC-366 |  |  |  |  | 0.628 | 0.53 | 0.619 | 0.643 | 0.587 | 0.964 | 0.959 | 0.863 | 0.881 | 1.03 | 0.639 | 0.589 | 0.656 | 0.666 | 0.79
18 | NCI-H1648 |  |  |  |  |  |  |  |  |  | 0.275 | 0.283 | 0.268 | 0.275 | 0.295 |  |  |  |  | 
19 | EBC-1 |  |  |  |  |  |  |  |  |  |  |  |  |  |  | 0.829 | 0.941 | 0.978 | 0.959 | 0.937
20 | NCI-H1299 |  |  |  |  |  |  |  |  |  |  |  |  |  |  | 0.989 | 0.966 | 1.02 | 0.977 | 1.07
21 | NCI-H2342 | 0.63 | 0.606 | 0.505 | 0.499 | 0.448 | 0.588 | 0.807 | 0.562 | 0.662 | 0.555 | 0.654 | 0.672 | 0.505 | 0.637 |  |  |  |  | 
22 | IA-LM |  |  |  |  |  |  |  |  |  |  |  |  |  |  | 0.514 | 0.627 | 0.594 | 0.482 | 0.46
23 | NCI-H2170 | 0.521 | 0.505 | 0.45 | 0.521 | 0.469 | 0.359 | 0.447 | 0.489 | 0.409 | 0.686 | 0.687 | 0.748 | 0.718 | 0.775 |  |  |  |  | 
